The text below walks through data of EP2301627A1, “Novel antimalarial 3-azabicyclo[3.2.2]nonane derivatives” (University of Graz, priority 2009, dated 2011).

For series [1], the system named is K1 strain of P. falciparum (resistant to chloroquine and pyrimethamine). In words: in vitro screening against Plasmodium falciparum, [3H]-hypoxanthine incorporation assay. The settings on record: read-out: IC50 P.falc. In kind it is cell-based. The method, then: Antiplasmodial activity is determined using the K1 strain of P. falciparum (resistant to chloroquine and pyrimethamine). A modification of the [^3H]-hypoxanthine incorporation assay is used [Matile H, Pink JRL. in: Lefkovits I. and Pernis B. (Eds.). Immunological Methods, Academic Press, San Diego, 1990, 221-234.]. Briefly, infected human red blood cells in RPMI 1640 medium with 5% Albumax are exposed to serial drug dilutions in microtiter plates for 48 hours. Viability is assessed by measuring the incorporation of [^3H]-hypoxanthine by liquid scintillation counting 24 hours after the addition of the radiolabel. The counts are expressed as percentage of the control cultures, sigmoidal inhibition curves are drawn and IC50 values calculated.

Series [2] concerns T. b. rhodesiense STIB 900. Put plainly: in vitro screening against Trypanosoma brucei rhodesiense, Alamar Blue assay. The series is classed as cell-based. As to conditions: read-out: IC50 T.rho. The protocol: Minimum Essential Medium (50 µl) supplemented according to Baltz et al. [Baltz T, Baltz D, Giroud C, Crockett J. EMBO J., 1985, 4: 1273-1277] with 2-mercaptoethanol and 15% heat-inactivated horse serum is added to each well of a 96-well microtiter plate. Serial drug dilutions are added to the wells. Then 50 µl of trypanosome suspension (T. b. rhodesiense STIB 900) is added to each well and the plate incubated at 37°C under a 5% CO2 atmosphere for 72 hours. Alamar Blue (10 µl) is then added to each well and incubation continued for a further 2-4 hours. The plate is then read with a Millipore Cytofluor 2300 using an excitation wavelength of 530 nm and emission wavelength of 590 nm [Räz B, Iten M, Grether-Bühler Y, Kaminsky R, Brun R. Acta Trop., 1997, 68: 139-147]. Fluorescence development is expressed as percentage of the control, and IC50 values determined. Cytotoxicity is assessed using the same assay and L-6 cells.
For orientation: The colour change of resazurin is a common sign of viable cells or microbes.

The subject of another series is L-6 cells. Put plainly: Cytotoxicity, same Alamar Blue assay with L-6 cells. In kind it is cell-based. The settings on record: Rattus norvegicus. The protocol: Serial drug dilutions are added to the wells. Then 50 µl of trypanosome suspension (T. b. rhodesiense STIB 900) is added to each well and the plate incubated at 37°C under a 5% CO2 atmosphere for 72 hours. Alamar Blue (10 µl) is then added to each well and incubation continued for a further 2-4 hours. […] Fluorescence development is expressed as percentage of the control, and IC50 values determined. Cytotoxicity is assessed using the same assay and L-6 cells.

The test system of another series is P. berghei ANKA strain. In words: in vivo screening against Plasmodium berghei in mice. As to conditions: for MSD P. berghei: mean survival day; for Activity %: percent reduction of parasitemia vs control. The method, then:
• Method of infection of animals: • Male mice (Fü albino; specific pathogen free) weighing 20± 2g are infected intravenously with 2x10^7 P. berghei ANKA strain-infected erythrocytes from donor mice on day 0 of the experiment. […] Parasitemia is determined microscopically by counting 1000 red blood cells. • For low parasitemias (<1%) 2000 rbc's have to be counted. The difference between the mean value for the control group (taken as 100%) and that for each experimental group is calculated and expressed as percent reduction (=activity). • The mean survival day (MSD, in days) is recorded as well as observations concerning side effects of the drug.

Where [3] appears, read: Erythrocyte, K1 strain, infected human red blood cells, 48 hours drug exposure.
The mark [4] stands for this setting: L6, L-6 cells, read-out: IC50 Cytox.

Several values for one entry are separate records, joined by “and”; a condition that tells them apart may be missing. Identical values can stand only once. Like-named read-outs stand apart in the source and are kept apart here.

As usually defined, the IC50 is the concentration that gives 50% inhibition. Regarding `c1ccc([C@@H]2CC3(N4CCCC4)CNCC2[C@H](c2ccccc2)C3)cc1` (racemic) [Example 1, (6RS,9RS)-(±)-6,9-Diphenyl-1-pyrrolidino-3-azabicyclo[3.2.2]nonane], the IC50 was 0.095 µM in series [1] (setting [3]); 1 µM in series [2] (STIB 900, 72 hours incubation); 72.9 µM with L-6 cells (setting [4]). Besides, the “MSD P. berghei” value in the series on P. berghei ANKA strain (ip 4x10mg/kg) is 4 days; with P. berghei ANKA strain (ip 4x20mg/kg), 10 days; in the series with P. berghei ANKA strain (ip 4x50mg/kg), 12.3 days and 15 days; with P. berghei ANKA strain (po 1x100mg/kg) it was 12 days; with P. berghei ANKA strain (po 1x200mg/kg), 16 days; in the series on P. berghei ANKA strain (po 4x100mg/kg) it was 18.6 days. For the same compound, the Activity % with P. berghei ANKA strain (ip 4x10mg/kg) is 25.06%; with P. berghei ANKA strain (ip 4x20mg/kg), 60.11%; in the series with P. berghei ANKA strain (ip 4x50mg/kg), 94.32% and 94.77%; in the series on P. berghei ANKA strain (po 1x100mg/kg), 70.52%; in the series with P. berghei ANKA strain (po 1x200mg/kg), 66.13%; in the series with P. berghei ANKA strain (po 4x100mg/kg) it was 97.7%. Also, the “side effects of the drug” value in the series on P. berghei ANKA strain (po 1x200mg/kg) was “toxic”.

Consider `Nc1nc(N)nc(Nc2ccc([As]3SCC(CO)S3)cc2)n1` (stereo not shown) [Melarsoprol], for which the IC50 was 0.0039 µM in series [2] (72 h) and 7.78 µM with L-6 cells (L6, read-out: IC50 Cytox).

Regarding `C[C@@H]1CC[C@H]2[C@@H](C)C(=O)O[C@@H]3O[C@@]4(C)CC[C@@H]1[C@]32OO4` [Artemisinin], the half-inhibitory concentration (IC50) in series [1] (setting [3]) came out at 0.0064 µM; with L-6 cells (setting [4]), 450 µM.

As for `CCN(CC)CCCC(C)Nc1ccnc2cc(Cl)ccc12` (stereo not shown) [Chloroquine, reference compound], the IC50 in series [1] (K1, Erythrocyte, 48 h) was 0.12 µM; in the series on L-6 cells (L6, read-out: IC50 Cytox), 188 µM. Besides, the “MSD P. berghei” value in the series with P. berghei ANKA strain (ip 4x10mg/kg) and in the series on P. berghei ANKA strain (po 4x10mg/kg) was 20 days throughout. Besides, the Activity % with P. berghei ANKA strain (ip 4x10mg/kg) and in the series with P. berghei ANKA strain (po 4x10mg/kg) was 99.6% throughout.

For the compound `N=C(N)c1ccc(OCCCCCOc2ccc(C(=N)N)cc2)cc1` [Pentamidine], the IC50 in series [2] (STIB 900, 72 hours incubation) was determined as 0.0075 µM; in the series with L-6 cells (setting [4]), 4720 µM.
